The results in this text go back to article PMC7408349, “Synthesis and Anticancer Activity of Dimeric Polyether Ionophores” (Biomolecules, 2020).

Data set [1] relates to MV-4-11 cells (human acute myeloid leukemia cell line). The data set is described as follows: In vitro antiproliferative activity, SRB assay, MV-4-11. As to conditions: MV4-11, 72 h incubation, mean ± SD, LAS, MON, SAL as sodium salts. The data set is classed as cell-based. From the text:
(§1) Each experiment was repeated at least three times separately.
(In general: In SRB staining, fixed cells bind dye roughly in proportion to their protein.)

Data set [2] deals with JIMT-1 cells (human breast cancer cell line). Nature of the data set: In vitro antiproliferative activity, SRB assay, JIMT-1. The conditions noted are these: mean ± SD, LAS, MON, SAL as sodium salts, '---' = inactive (undetectable IC50 in tested concentration range). In kind it is cell-based.
Source text: as §1

Data set [3] deals with MCF-7 cells (human breast cancer cell line). The data set is described as follows: In vitro antiproliferative activity, SRB assay, MCF-7. In kind it is cell-based. As to conditions: MCF7, 72 h incubation, mean ± SD, LAS, MON, SAL as sodium salts, '---' = inactive (undetectable IC50 in tested concentration range).
Source text: as §1

For data set [4], the system named is SKBR-3 cells (human breast cancer cell line). The data set is described as follows: In vitro antiproliferative activity, SRB assay, SKBR-3. The data set is classed as cell-based. The conditions noted are these: mean ± SD, LAS, MON, SAL as sodium salts.
Source text: as §1

The test system of data set [5] is LoVo cells (human colon adenocarcinoma, drug-sensitive variant). The data set is described as follows: In vitro antiproliferative activity, SRB assay, LoVo. The data set is classed as cell-based. As to conditions: 72 h incubation, mean ± SD, LAS, MON, SAL as sodium salts.
Source text: as §1

Data set [6] relates to BALB/3T3 cells (normal embryonic fibroblasts). The data set is described as follows: Cytotoxicity on non-tumor cells, SRB assay, BALB/3T3. The conditions noted are these: Mus musculus, non-tumor cell line, 72 h incubation, mean ± SD, '---' = inactive (undetectable IC50 in tested concentration range). In kind it is cell-based, murine.
Source text: as §1

The subject of data set [7] is MCF10A cells (normal mammary epithelial cell line). The data set is described as follows: Cytotoxicity on non-tumor cells, SRB assay, MCF10A. The data set is classed as cell-based. The conditions noted are these: Homo sapiens, MCF-10A, 72 h incubation, mean ± SD, '---' = inactive (undetectable IC50 in tested concentration range).
Source text: as §1

Data set [8] in a line: In vitro antiproliferative activity, SRB assay, LoVo/DX.
Data set [9] concerns LoVo/DX cells (doxorubicin-resistant human colon adenocarcinoma sub-line, ABCB1 overexpression). Described as above. As to conditions: Homo sapiens, LoVo/DX, 72 h, read-out: IC50 LoVo/DX.
[10] abbreviates: Homo sapiens, JIMT-1, 72 h incubation.
Where [11] appears, read: Homo sapiens, SK-BR-3, 72 h incubation.
Setting [12] is: mouse (BALB/3T3), human (LoVo/DX).

Consider `C=C(C)[C@@H]1CC[C@]2(C(=O)O)CC[C@]3(C)[C@H](CC[C@@H]4[C@@]5(C)CC[C@H](O)C(C)(C)[C@@H]5CC[C@]43C)[C@@H]12` [BET, betulinic acid], for which the IC50 turned out to be 1420 ± 970 nM in data set [1]; 9900 ± 2320 nM in data set [2] (setting [10]); 12600 ± 1570 nM in [3]; 7470 ± 1160 nM in [4] (setting [11]); 16500 ± 6560 nM in [5]; 84800 ± 10000 nM in [6]. The IC50 in data set [7] was found to be 7230 ± 1240 nM; in [9] it was 8960 ± 1080 nM. Moreover, the selectivity ratio at 72 h in [8] (human) is 0.81; in data set [8] (setting [12]), 9.47.

`N.N.[Cl][Pt][Cl]` [CIS, cisplatin]: the IC50 turned out to be 8230 nM in [2] (72 h incubation) and 4170 nM in data set [4] (72 h incubation).

With `COc1cccc2c1C(=O)c1c(O)c3c(c(O)c1C2=O)C[C@@](O)(C(=O)CO)C[C@@H]3O[C@H]1C[C@H](N)[C@H](O)[C@H](C)O1` [DX, doxorubicin], the IC50 was determined as 20 ± 4 nM in [1]; 400 ± 100 nM in data set [2] (setting [10]); 130 ± 50 nM in data set [3]; 110 ± 10 nM in [4] (setting [11]); 110 ± 4 nM in data set [5]; 260 ± 140 nM in data set [6]. Also, the IC50 in [7] was determined as 170 ± 30 nM; in [9] it was 8740 ± 1460 nM. In addition, the selectivity ratio at 72 h in data set [8] (human) was found to be 0.02; in data set [8] (setting [12]), 0.03.

For the compound `CC[C@@H](C(=O)[C@@H](C)[C@@H](O)[C@H](C)CCc1ccc(C)c(O)c1C(=O)O)[C@H]1O[C@](CC)([C@H]2CC[C@](O)(CC)[C@H](C)O2)C[C@@H]1C` [LAS, lasalocid acid], the IC50 in data set [1] was determined as 1960 ± 650 nM; in data set [2] (setting [10]), 5550 nM; in data set [3], 4440 ± 1340 nM; in data set [4] (setting [11]), 1370 ± 10 nM; in data set [5], 4050 ± 1020 nM; in data set [6], 9110 ± 3650 nM. The IC50 is 6810 ± 2850 nM in data set [7] and 4550 ± 270 nM in data set [9]. The values for the selectivity ratio at 72 h in [8] (human) and in data set [8] (setting [12]) were 1.5 and 2, respectively.

In the case of `CC[C@@]1([C@@H]2O[C@@H]([C@H]3O[C@@](O)(CO)[C@H](C)C[C@@H]3C)C[C@@H]2C)CC[C@H]([C@]2(C)CC[C@]3(C[C@H](O)[C@@H](C)[C@@H]([C@@H](C)[C@@H](OC)[C@H](C)C(=O)O)O3)O2)O1` [MON, monensin], the IC50 in data set [1] came out at 30 ± 20 nM; in data set [2] (setting [10]), 1170 ± 140 nM; in data set [3], 510 ± 120 nM; in [4] (setting [11]) it was 40 ± 20 nM; in data set [5], 90 ± 60 nM; in [6], 1100 ± 240 nM. Also, the IC50 turned out to be 870 ± 230 nM in data set [7] and 260 ± 110 nM in data set [9]. For the same compound, the selectivity ratio at 72 h was determined as 3.35 in “in vitro” (human) and 4.23 in “in vitro” (setting [12]).

Consider `CC[C@@H](C(=O)[C@@H](C)[C@@H](O)[C@H](C)[C@@H]1O[C@@H]([C@@H](CC)C(=O)O)CC[C@@H]1C)[C@H]1O[C@]2(C=C[C@@H](O)[C@]3(CC[C@@](C)([C@H]4CC[C@](O)(CC)[C@H](C)O4)O3)O2)[C@H](C)C[C@@H]1C` [SAL, salinomycin], for which the IC50 in data set [1] came to 100 ± 30 nM; in [2] (setting [10]), 2670 nM; in [3], 930 ± 330 nM; in [4] (setting [11]), 270 nM; in [5], 250 ± 70 nM; in data set [6] it was 1550 ± 860 nM. Further, the values for the IC50 in data set [7] and in [9] were 1280 ± 460 nM and 610 ± 210 nM, respectively. The selectivity ratio at 72 h in the data set “in vitro” (human) stood at 2.1; in the data set “in vitro” (setting [12]), 2.54.

Regarding `C=C(C)[C@@H]1CC[C@]2(C(=O)NCc3cn([C@H]4C=C[C@]5(O[C@H]([C@@H](CC)C(=O)[C@@H](C)[C@@H](O)[C@H](C)[C@@H]6O[C@@H]([C@@H](CC)C(=O)O)CC[C@@H]6C)[C@@H](C)C[C@H]5C)O[C@@]45CC[C@@](C)([C@H]4CC[C@](O)(CC)[C@H](C)O4)O5)nn3)CC[C@]3(C)[C@H](CC[C@@H]4[C@@]5(C)CC[C@H](O)C(C)(C)[C@@H]5CC[C@]43C)[C@@H]12` [compound 18, Salinomycin-betulinic acid dimer], the IC50 in data set [1] came to 100 ± 90 nM; in [2] (setting [10]), 7280 ± 3110 nM; in data set [3] it was 4190 ± 1820 nM; in [4] (setting [11]), 340 ± 130 nM; in [5], 430 ± 130 nM; in data set [6] it was 4870 ± 1560 nM. Besides, the IC50 in data set [7] amounted to 10300 ± 4470 nM; in data set [9], 14100 ± 6900 nM. Moreover, the selectivity ratio at 72 h in “in vitro” (human) came to 0.73; in “in vitro” (setting [12]) it was 0.35.

For `C=C(C)[C@@H]1CC[C@]2(C(=O)OCc3cn([C@H]4C=C[C@]5(O[C@H]([C@@H](CC)C(=O)[C@@H](C)[C@@H](O)[C@H](C)[C@@H]6O[C@@H]([C@@H](CC)C(=O)O)CC[C@@H]6C)[C@@H](C)C[C@H]5C)O[C@@]45CC[C@@](C)([C@H]4CC[C@](O)(CC)[C@H](C)O4)O5)nn3)CC[C@]3(C)[C@H](CC[C@@H]4[C@@]5(C)CC[C@H](O)C(C)(C)[C@@H]5CC[C@]43C)[C@@H]12` [compound 19, Salinomycin-betulinic acid dimer], the IC50 was determined as 290 ± 140 nM in [1]; 7090 ± 2220 nM in [2] (setting [10]); 6870 ± 3280 nM in data set [3]; 600 ± 260 nM in data set [4] (setting [11]); 2660 ± 980 nM in data set [5]; 6220 ± 1440 nM in data set [6]. Also, the IC50 in data set [7] came out at 7020 ± 2440 nM.

For `C=C(C)[C@@H]1CC[C@]2(C(=O)O)CC[C@]3(C)[C@H](CC[C@@H]4[C@@]5(C)CC[C@H](OC(=O)OCc6cn([C@H]7C=C[C@]8(O[C@H]([C@@H](CC)C(=O)[C@@H](C)[C@@H](O)[C@H](C)[C@@H]9O[C@@H]([C@@H](CC)C(=O)O)CC[C@@H]9C)[C@@H](C)C[C@H]8C)O[C@@]78CC[C@@](C)([C@H]7CC[C@](O)(CC)[C@H](C)O7)O8)nn6)C(C)(C)[C@@H]5CC[C@]43C)[C@@H]12` [compound 20, Salinomycin-betulinic acid dimer], the IC50 in data set [1] was 1920 ± 820 nM; in [2] (setting [10]) it was 14700 ± 4880 nM; in data set [3], 21700 ± 5280 nM; in data set [4] (setting [11]), 3250 ± 240 nM; in data set [5], 5180 ± 720 nM; in data set [6], 18700 ± 4570 nM. The IC50 in [7] was 30300 ± 13800 nM; in data set [9], 48600 ± 11800 nM. The selectivity ratio at 72 h is 0.62 in “in vitro” (human) and 0.39 in the data set “in vitro” (setting [12]).
